From ChEMBL document CHEMBL1201862, “PubChem BioAssay data set” (2004)
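Protocol summary: plate cells (96-well), add compound at 5 concentrations, incubate 48 h, interpolate endpoints linearly. At the GI50, growth is halved.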 Calls of active or inactive are those of the source. No stated cut-off is given here; in the data, active = GI50 up to about 1.1 µM and inactive = higher.

Experiments:
Assay in all cases: growth of human tumour cells (NCI), 48 h
SNB-78 = tested on: SNB-78
M14 = tested on: M14
SW-620 = tested on: SW-620
UO-31 = tested on: UO-31
K562 = tested on: K562
DMS-273 = tested on: DMS-273
KM-20L2 = tested on: KM-20L2
UACC-62 = tested on: UACC-62
HCC 2998 = tested on: HCC 2998
HCT-15 = tested on: HCT-15
CAKI-1 = tested on: CAKI-1
DLD-1 = tested on: DLD-1
RPMI-8226 = tested on: RPMI-8226
HOP-92 = tested on: HOP-92
NCI-H522 = tested on: NCI-H522
ACHN = tested on: ACHN
HOP-62 = tested on: HOP-62
U-251 = tested on: U-251
SF-295 = tested on: SF-295
OVCAR-8 = tested on: OVCAR-8
Malme-3M = tested on: Malme-3M
NCI-H23 = tested on: NCI-H23
M19-MEL = tested on: M19-MEL
XF498 = tested on: XF498
TK-10 = tested on: TK-10
SF-268 = tested on: SF-268
IGROV-1 = tested on: IGROV-1
LXFL 529 = tested on: LXFL 529
CCRF-CEM = tested on: CCRF-CEM
HL-60 = tested on: HL-60
MOLT-4 = tested on: MOLT-4
SK-MEL-5 = tested on: SK-MEL-5
NCI-H460 = tested on: NCI-H460
EKVX = tested on: EKVX
RXF 393 = tested on: RXF 393
HCT-116 = tested on: HCT-116
LOX IMVI = tested on: LOX IMVI
A549 = tested on: A549
OVCAR-3 = tested on: OVCAR-3
UACC-257 = tested on: UACC-257
SF-539 = tested on: SF-539
SNB-19 = tested on: SNB-19
SN12C = tested on: SN12C
SR = tested on: SR
HT-29 = tested on: HT-29
OVCAR-5 = tested on: OVCAR-5
HOP-18 = tested on: HOP-18
DMS-114 = tested on: DMS-114
SK-MEL-2 = tested on: SK-MEL-2
SK-OV-3 = tested on: SK-OV-3
NCI-H226 = tested on: NCI-H226
786-0 = tested on: 786-0
SK-MEL-28 = tested on: SK-MEL-28
A498 = tested on: A498
KM12 = tested on: KM12
COLO 205 = tested on: COLO 205
SNB-75 = tested on: SNB-75
OVCAR-4 = tested on: OVCAR-4

Cc1c(N(Cc2ccccc2)Cc2ccccc2)nc(S(C)(=O)=O)nc1S(C)(=O)=O
GI50 (SNB-78): 2.2 µM (inactive) | GI50 (M14): 2.14 µM (inactive) | GI50 (SW-620): 1.93 µM (inactive) | GI50 (UO-31): 12.1 µM (inactive) | GI50 (K562): 2.08 µM (inactive) | GI50 (DMS-273): 2.2 µM (inactive) | GI50 (KM-20L2): 1.74 µM (inactive) | GI50 (UACC-62): 1.71 µM (inactive) | GI50 (HCC 2998): 1.79 µM (inactive) | GI50 (HCT-15): 2.56 µM | GI50 (CAKI-1): 8.07 µM (inactive) | GI50 (DLD-1): 1.87 µM (inactive) | GI50 (RPMI-8226): 2.74 µM (inactive) | GI50 (HOP-92): 3.56 µM (inactive) | GI50 (NCI-H522): 1.73 µM (inactive) | GI50 (ACHN): 4.68 µM (inactive) | GI50 (HOP-62): 14.7 µM (inactive) | GI50 (U-251): 2.53 µM (inactive) | GI50 (SF-295): 17.7 µM (inactive) | GI50 (OVCAR-8): 1.85 µM (inactive) | GI50 (Malme-3M): 5.36 µM (inactive) | GI50 (NCI-H23): 1.72 µM (inactive) | GI50 (M19-MEL): 1.54 µM (inactive) | GI50 (XF498): 1.73 µM (inactive) | GI50 (TK-10): 4.2 µM (inactive) | GI50 (SF-268): 1.95 µM (inactive) | GI50 (IGROV-1): 1.74 µM (inactive) | GI50 (LXFL 529): 1.91 µM (inactive) | GI50 (CCRF-CEM): 2.2 µM (inactive) | GI50 (HL-60): 2.09 µM (inactive) | GI50 (MOLT-4): 2.11 µM (inactive) | GI50 (SK-MEL-5): 12 µM (inactive) | GI50 (NCI-H460): 5.14 µM (inactive) | GI50 (EKVX): 1.53 µM (inactive) | GI50 (RXF 393): 1.57 µM (inactive) | GI50 (HCT-116): 1.66 µM (inactive) | GI50 (LOX IMVI): 1.84 µM (inactive) | GI50 (A549): 15.3 µM (inactive) | GI50 (OVCAR-3): 1.86 µM (inactive) | GI50 (UACC-257): 2.09 µM (inactive) | GI50 (SF-539): 13 µM (inactive) | GI50 (SNB-19): 13.4 µM (inactive) | GI50 (SN12C): 2.08 µM (inactive) | GI50 (SR): 1.58 µM (inactive) | GI50 (HT-29): 1.94 µM (inactive) | GI50 (OVCAR-5): 7.4 µM (inactive) | GI50 (HOP-18): 4.99 µM (inactive) | GI50 (DMS-114): 1.82 µM (inactive) | GI50 (SK-MEL-2): 11.9 µM (inactive) | GI50 (SK-OV-3): 14.4 µM (inactive) | GI50 (NCI-H226): 12.7 µM (inactive)

Cc1c(C(=O)/C=C/c2ccc([N+](=O)[O-])cc2)[n+]([O-])c2ccccc2[n+]1[O-]
GI50 (SNB-78): 65.5 µM (inactive) | GI50 (M14): > 100 µM (inactive) | GI50 (SW-620): 67 µM (inactive) | GI50 (UO-31): > 100 µM (inactive) | GI50 (K562): 27 µM (inactive) | GI50 (DMS-273): 57.3 µM (inactive) | GI50 (KM-20L2): > 100 µM (inactive) | GI50 (786-0): 52.1 µM (inactive) | GI50 (UACC-62): 41.7 µM (inactive) | GI50 (HCC 2998): > 100 µM (inactive) | GI50 (SK-MEL-28): > 100 µM (inactive) | GI50 (A498): > 100 µM (inactive) | GI50 (CAKI-1): 64.7 µM (inactive) | GI50 (DLD-1): 42.7 µM (inactive) | GI50 (RPMI-8226): 33.6 µM (inactive) | GI50 (HOP-92): 31.8 µM (inactive) | GI50 (NCI-H522): 20.5 µM (inactive) | GI50 (ACHN): > 100 µM (inactive) | GI50 (HOP-62): > 100 µM (inactive) | GI50 (U-251): 92.5 µM (inactive) | GI50 (SF-295): > 100 µM (inactive) | GI50 (OVCAR-8): 55.3 µM (inactive) | GI50 (Malme-3M): > 100 µM (inactive) | GI50 (NCI-H23): 28.2 µM (inactive) | GI50 (M19-MEL): > 100 µM (inactive) | GI50 (XF498): > 100 µM (inactive) | GI50 (TK-10): > 100 µM (inactive) | GI50 (SF-268): > 100 µM (inactive) | GI50 (IGROV-1): 55.7 µM (inactive) | GI50 (KM12): 93.5 µM (inactive) | GI50 (LXFL 529): 29.2 µM (inactive) | GI50 (CCRF-CEM): 20.9 µM (inactive) | GI50 (HL-60): 0.923 µM (active) | GI50 (MOLT-4): 20.7 µM (inactive) | GI50 (COLO 205): > 100 µM (inactive) | GI50 (NCI-H460): 62.2 µM (inactive) | GI50 (EKVX): > 100 µM (inactive) | GI50 (SNB-75): 41.4 µM (inactive) | GI50 (RXF 393): 29.1 µM (inactive) | GI50 (HCT-116): 48.4 µM (inactive) | GI50 (LOX IMVI): 42.3 µM (inactive) | GI50 (A549): > 100 µM (inactive) | GI50 (OVCAR-3): 95.7 µM (inactive) | GI50 (UACC-257): > 100 µM (inactive) | GI50 (OVCAR-4): 24.8 µM (inactive) | GI50 (SF-539): 49.1 µM (inactive) | GI50 (SNB-19): > 100 µM (inactive) | GI50 (SN12C): > 100 µM (inactive) | GI50 (SR): 43 µM (inactive) | GI50 (HT-29): 96.6 µM (inactive) | GI50 (OVCAR-5): > 100 µM (inactive) | GI50 (HOP-18): > 100 µM (inactive) | GI50 (DMS-114): 30.6 µM (inactive) | GI50 (SK-OV-3): > 100 µM (inactive) | GI50 (NCI-H226): > 100 µM (inactive)

C/C(=N/NS(=O)(=O)c1ccc([N+](=O)[O-])cc1)c1cccc[n+]1[O-]
GI50 (SNB-78): > 100 µM (inactive) | GI50 (M14): > 100 µM (inactive) | GI50 (SW-620): > 100 µM (inactive) | GI50 (UO-31): > 100 µM (inactive) | GI50 (K562): > 100 µM (inactive) | GI50 (DMS-273): > 100 µM (inactive) | GI50 (KM-20L2): > 100 µM (inactive) | GI50 (786-0): > 100 µM (inactive) | GI50 (UACC-62): > 100 µM (inactive) | GI50 (HCC 2998): > 100 µM (inactive) | GI50 (SK-MEL-28): > 100 µM (inactive) | GI50 (A498): > 100 µM (inactive) | GI50 (HCT-15): > 100 µM | GI50 (CAKI-1): > 100 µM (inactive) | GI50 (DLD-1): > 100 µM (inactive) | GI50 (RPMI-8226): > 100 µM (inactive) | GI50 (HOP-92): > 100 µM (inactive) | GI50 (NCI-H522): > 100 µM (inactive) | GI50 (ACHN): > 100 µM (inactive) | GI50 (HOP-62): > 100 µM (inactive) | GI50 (U-251): > 100 µM (inactive) | GI50 (SF-295): > 100 µM (inactive) | GI50 (OVCAR-8): > 100 µM (inactive) | GI50 (NCI-H23): > 100 µM (inactive) | GI50 (M19-MEL): > 100 µM (inactive) | GI50 (XF498): > 100 µM (inactive) | GI50 (TK-10): > 100 µM (inactive) | GI50 (SF-268): > 100 µM (inactive) | GI50 (IGROV-1): > 100 µM (inactive) | GI50 (KM12): > 100 µM (inactive) | GI50 (LXFL 529): > 100 µM (inactive) | GI50 (CCRF-CEM): > 100 µM (inactive) | GI50 (HL-60): > 100 µM (inactive) | GI50 (MOLT-4): > 100 µM (inactive) | GI50 (SK-MEL-5): > 100 µM (inactive) | GI50 (NCI-H460): > 100 µM (inactive) | GI50 (EKVX): > 100 µM (inactive) | GI50 (SNB-75): > 100 µM (inactive) | GI50 (HCT-116): > 100 µM (inactive) | GI50 (A549): > 100 µM (inactive) | GI50 (OVCAR-3): > 100 µM (inactive) | GI50 (UACC-257): > 100 µM (inactive) | GI50 (OVCAR-4): > 100 µM (inactive) | GI50 (SF-539): > 100 µM (inactive) | GI50 (SNB-19): > 100 µM (inactive) | GI50 (SN12C): > 100 µM (inactive) | GI50 (SR): > 100 µM (inactive) | GI50 (HT-29): > 100 µM (inactive) | GI50 (OVCAR-5): > 100 µM (inactive) | GI50 (HOP-18): > 100 µM (inactive) | GI50 (DMS-114): > 100 µM (inactive) | GI50 (SK-OV-3): > 100 µM (inactive)
